Results reported in ChEMBL document CHEMBL4507267 (2021).

How the values were obtained:
[1] = target: Tyrosine-protein kinase ABL2 (Homo sapiens) (UniProt P42684); conditions: Compound concentration 1000.0 nM
[2] = target: NUAK family SNF1-like kinase 1 (Homo sapiens) (UniProt O60285); conditions: Compound concentration 1000.0 nM
[3] = target: Bone morphogenetic protein receptor type-1B (Homo sapiens) (UniProt O00238); conditions: Compound concentration 1000.0 nM
[4] = target: Mitotic checkpoint serine/threonine-protein kinase BUB1 (Homo sapiens) (UniProt O43683); conditions: Compound concentration 1000.0 nM
[5] = target: Calcium/calmodulin-dependent protein kinase type II subunit gamma (Homo sapiens) (UniProt Q13555); conditions: Compound concentration 1000.0 nM
[6] = target: Cyclin-dependent kinase 4 (Homo sapiens) (UniProt P11802); conditions: Compound concentration 1000.0 nM
[7] = target: Death-associated protein kinase 2 (Homo sapiens) (UniProt Q9UIK4); conditions: Compound concentration 1000.0 nM
[8] = target: Serine/threonine-protein kinase MRCK gamma (Homo sapiens) (UniProt Q6DT37); conditions: Compound concentration 1000.0 nM
[9] = tested on: Epidermal growth factor receptor (Homo sapiens), P00533 [L861Q]; conditions: Compound concentration 1000.0 nM
[10] = target: Ephrin type-B receptor 3 (Homo sapiens) (UniProt P54753); conditions: Compound concentration 1000.0 nM
[11] = target: Ephrin type-B receptor 4 (Homo sapiens) (UniProt P54760); conditions: Compound concentration 1000.0 nM
[12] = target: Ephrin type-B receptor 6 (Homo sapiens) (UniProt O15197); conditions: Compound concentration 1000.0 nM
[13] = target: Mitogen-activated protein kinase 15 (Homo sapiens) (UniProt Q8TD08); conditions: Compound concentration 1000.0 nM
[14] = target: Fibroblast growth factor receptor 3 (Homo sapiens) (UniProt P22607); conditions: Compound concentration 1000.0 nM
[15] = tested on: Receptor-type tyrosine-protein kinase FLT3 (Homo sapiens), P36888 [D835V]; conditions: Compound concentration 1000.0 nM
[16] = tested on: Receptor-type tyrosine-protein kinase FLT3 (Homo sapiens), P36888 [UNDEFINED MUTATION]; conditions: Compound concentration 1000.0 nM
[17] = tested on: Receptor-type tyrosine-protein kinase FLT3 (Homo sapiens), P36888 [K663Q]; conditions: Compound concentration 1000.0 nM
[18] = target: Cyclin-G-associated kinase (Homo sapiens) (UniProt O14976); conditions: Compound concentration 1000.0 nM
[19] = target: G protein-coupled receptor kinase 4 (Homo sapiens) (UniProt P32298); conditions: Compound concentration 1000.0 nM
[20] = target: Rhodopsin kinase GRK7 (Homo sapiens) (UniProt Q8WTQ7); conditions: Compound concentration 1000.0 nM
[21] = target: Homeodomain-interacting protein kinase 3 (Homo sapiens) (UniProt Q9H422); conditions: Compound concentration 1000.0 nM
[22] = target: Tyrosine-protein kinase JAK3 (Homo sapiens) (UniProt P52333); conditions: Compound concentration 1000.0 nM
[23] = target: Leucine-rich repeat serine/threonine-protein kinase 2 (Homo sapiens) (UniProt Q5S007); conditions: Compound concentration 1000.0 nM
[24] = target: Dual specificity mitogen-activated protein kinase kinase 1 (Homo sapiens) (UniProt Q02750); conditions: Compound concentration 1000.0 nM
[25] = target: Hepatocyte growth factor receptor (Homo sapiens) (UniProt P08581); conditions: Compound concentration 1000.0 nM
[26] = target: Misshapen-like kinase 1 (Homo sapiens) (UniProt Q8N4C8); conditions: Compound concentration 1000.0 nM
[27] = target: Muscle, skeletal receptor tyrosine-protein kinase (Homo sapiens) (UniProt O15146); conditions: Compound concentration 1000.0 nM
[28] = target: Myosin light chain kinase 2, skeletal/cardiac muscle (Homo sapiens) (UniProt Q9H1R3); conditions: Compound concentration 1000.0 nM
[29] = target: 3-phosphoinositide-dependent protein kinase 1 (Homo sapiens) (UniProt O15530); conditions: Compound concentration 1000.0 nM
[30] = target: Cyclin-dependent kinase 15 (Homo sapiens) (UniProt Q96Q40); conditions: Compound concentration 1000.0 nM
[31] = tested on: Phosphatidylinositol 4,5-bisphosphate 3-kinase catalytic subunit alpha isoform (Homo sapiens), P42336 [E545A]; conditions: Compound concentration 1000.0 nM
[32] = tested on: Phosphatidylinositol 4,5-bisphosphate 3-kinase catalytic subunit alpha isoform (Homo sapiens), P42336 [H1047Y]; conditions: Compound concentration 1000.0 nM
[33] = target: Phosphatidylinositol 4-kinase beta (Homo sapiens) (UniProt Q9UBF8); conditions: Compound concentration 1000.0 nM
[34] = target: Serine/threonine-protein kinase PLK1 (Homo sapiens) (UniProt P53350); conditions: Compound concentration 1000.0 nM
[35] = target: Ribosomal protein S6 kinase alpha-4 (Homo sapiens) (UniProt O75676); conditions: Compound concentration 1000.0 nM
[36] = target: Ribosomal protein S6 kinase alpha-3 (Homo sapiens) (UniProt P51812); conditions: Compound concentration 1000.0 nM
[37] = target: Ribosomal protein S6 kinase alpha-6 (Homo sapiens) (UniProt Q9UK32); conditions: Compound concentration 1000.0 nM
[38] = target: Ribosomal protein S6 kinase beta-1 (Homo sapiens) (UniProt P23443); conditions: Compound concentration 1000.0 nM
[39] = target: Serine/threonine-protein kinase 36 (Homo sapiens) (UniProt Q9NRP7); conditions: Compound concentration 1000.0 nM
[40] = target: Dual specificity testis-specific protein kinase 1 (Homo sapiens) (UniProt Q15569); conditions: Compound concentration 1000.0 nM
[41] = target: Serine/threonine-protein kinase tousled-like 1 (Homo sapiens) (UniProt Q9UKI8); conditions: Compound concentration 1000.0 nM
Histamine H2 receptor = Histamine H2 receptor (Homo sapiens, UniProt P25021); conditions: Compound concentration 10.0 uM
[42] = target: GABA-A receptor; anion channel (Rattus norvegicus) (UniProt O09028+P15431+P18506+P18508+P19969+P20236+P23574+P23576+P28471+P28473+P30191+P62813+P63079+P63138+Q91ZM7+Q9ES14); conditions: Compound concentration 10.0 uM

Chain of Tyrosine-protein kinase ABL2 (Homo sapiens) (P42684 whole entry): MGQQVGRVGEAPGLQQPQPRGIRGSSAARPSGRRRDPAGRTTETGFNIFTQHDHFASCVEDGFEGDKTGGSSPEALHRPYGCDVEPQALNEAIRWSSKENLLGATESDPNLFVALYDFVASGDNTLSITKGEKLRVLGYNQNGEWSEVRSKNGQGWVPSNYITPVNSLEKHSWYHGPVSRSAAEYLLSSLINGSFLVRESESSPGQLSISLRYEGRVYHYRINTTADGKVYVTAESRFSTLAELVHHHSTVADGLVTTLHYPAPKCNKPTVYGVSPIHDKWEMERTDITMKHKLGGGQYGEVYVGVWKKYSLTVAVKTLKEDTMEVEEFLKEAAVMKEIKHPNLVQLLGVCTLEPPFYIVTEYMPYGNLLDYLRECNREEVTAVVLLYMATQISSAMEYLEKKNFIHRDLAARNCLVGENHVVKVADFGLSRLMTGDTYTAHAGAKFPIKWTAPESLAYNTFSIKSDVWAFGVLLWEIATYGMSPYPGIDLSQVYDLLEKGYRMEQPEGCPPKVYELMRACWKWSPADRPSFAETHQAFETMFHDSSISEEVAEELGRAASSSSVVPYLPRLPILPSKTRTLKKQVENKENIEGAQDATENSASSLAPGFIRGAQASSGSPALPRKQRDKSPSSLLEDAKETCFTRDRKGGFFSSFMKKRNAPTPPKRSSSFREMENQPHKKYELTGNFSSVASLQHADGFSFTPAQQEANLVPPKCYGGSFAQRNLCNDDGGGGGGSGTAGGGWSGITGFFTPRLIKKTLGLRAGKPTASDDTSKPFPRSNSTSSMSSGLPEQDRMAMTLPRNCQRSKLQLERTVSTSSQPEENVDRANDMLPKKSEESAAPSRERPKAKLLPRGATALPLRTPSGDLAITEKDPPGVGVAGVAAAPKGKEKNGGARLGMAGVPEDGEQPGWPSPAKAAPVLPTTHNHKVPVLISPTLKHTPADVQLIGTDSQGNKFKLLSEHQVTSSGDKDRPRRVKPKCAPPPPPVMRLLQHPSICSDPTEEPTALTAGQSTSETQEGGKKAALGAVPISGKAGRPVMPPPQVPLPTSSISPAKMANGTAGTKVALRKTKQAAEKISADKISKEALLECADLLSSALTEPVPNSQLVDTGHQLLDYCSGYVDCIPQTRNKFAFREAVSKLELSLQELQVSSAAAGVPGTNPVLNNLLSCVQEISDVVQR
Chain of Phosphatidylinositol 4-kinase beta (Homo sapiens) (Q9UBF8 2-816 limits assumed): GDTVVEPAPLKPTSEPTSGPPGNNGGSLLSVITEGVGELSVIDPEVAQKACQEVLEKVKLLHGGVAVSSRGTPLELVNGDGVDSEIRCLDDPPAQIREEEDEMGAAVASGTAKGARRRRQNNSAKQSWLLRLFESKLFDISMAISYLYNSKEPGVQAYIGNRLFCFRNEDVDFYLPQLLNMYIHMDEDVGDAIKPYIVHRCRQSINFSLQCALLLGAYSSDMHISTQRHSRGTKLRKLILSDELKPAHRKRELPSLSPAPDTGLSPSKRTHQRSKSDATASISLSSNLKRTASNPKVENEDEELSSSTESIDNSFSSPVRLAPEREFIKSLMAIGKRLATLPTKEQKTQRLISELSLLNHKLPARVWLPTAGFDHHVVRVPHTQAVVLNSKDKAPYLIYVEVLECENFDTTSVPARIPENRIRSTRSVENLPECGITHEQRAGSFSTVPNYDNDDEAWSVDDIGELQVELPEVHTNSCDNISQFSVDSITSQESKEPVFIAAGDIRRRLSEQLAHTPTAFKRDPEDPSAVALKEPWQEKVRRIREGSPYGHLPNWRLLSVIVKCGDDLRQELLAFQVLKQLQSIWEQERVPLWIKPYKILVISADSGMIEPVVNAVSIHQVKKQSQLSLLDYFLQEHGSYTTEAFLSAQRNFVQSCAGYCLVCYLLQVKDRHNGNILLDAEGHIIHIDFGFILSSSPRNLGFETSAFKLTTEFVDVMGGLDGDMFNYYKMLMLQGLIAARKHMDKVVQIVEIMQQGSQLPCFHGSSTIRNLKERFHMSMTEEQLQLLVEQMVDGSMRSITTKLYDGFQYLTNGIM
Chain of 3-phosphoinositide-dependent protein kinase 1 (Homo sapiens) (O15530 whole entry): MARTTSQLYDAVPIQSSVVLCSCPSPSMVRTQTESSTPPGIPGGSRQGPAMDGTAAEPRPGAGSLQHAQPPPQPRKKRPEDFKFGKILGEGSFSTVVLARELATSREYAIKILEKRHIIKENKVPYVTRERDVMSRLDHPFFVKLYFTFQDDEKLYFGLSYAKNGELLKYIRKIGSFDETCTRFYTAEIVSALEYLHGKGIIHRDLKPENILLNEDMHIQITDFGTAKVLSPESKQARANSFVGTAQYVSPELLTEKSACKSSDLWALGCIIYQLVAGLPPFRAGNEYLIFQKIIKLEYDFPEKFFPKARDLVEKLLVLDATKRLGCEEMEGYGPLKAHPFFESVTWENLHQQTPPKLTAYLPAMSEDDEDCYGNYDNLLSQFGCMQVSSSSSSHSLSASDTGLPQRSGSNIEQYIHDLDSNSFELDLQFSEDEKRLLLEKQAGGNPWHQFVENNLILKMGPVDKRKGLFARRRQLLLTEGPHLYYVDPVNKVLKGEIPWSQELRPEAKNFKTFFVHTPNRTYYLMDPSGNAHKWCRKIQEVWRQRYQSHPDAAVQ
Chain of Myosin light chain kinase 2, skeletal/cardiac muscle (Homo sapiens) (Q9H1R3 whole entry): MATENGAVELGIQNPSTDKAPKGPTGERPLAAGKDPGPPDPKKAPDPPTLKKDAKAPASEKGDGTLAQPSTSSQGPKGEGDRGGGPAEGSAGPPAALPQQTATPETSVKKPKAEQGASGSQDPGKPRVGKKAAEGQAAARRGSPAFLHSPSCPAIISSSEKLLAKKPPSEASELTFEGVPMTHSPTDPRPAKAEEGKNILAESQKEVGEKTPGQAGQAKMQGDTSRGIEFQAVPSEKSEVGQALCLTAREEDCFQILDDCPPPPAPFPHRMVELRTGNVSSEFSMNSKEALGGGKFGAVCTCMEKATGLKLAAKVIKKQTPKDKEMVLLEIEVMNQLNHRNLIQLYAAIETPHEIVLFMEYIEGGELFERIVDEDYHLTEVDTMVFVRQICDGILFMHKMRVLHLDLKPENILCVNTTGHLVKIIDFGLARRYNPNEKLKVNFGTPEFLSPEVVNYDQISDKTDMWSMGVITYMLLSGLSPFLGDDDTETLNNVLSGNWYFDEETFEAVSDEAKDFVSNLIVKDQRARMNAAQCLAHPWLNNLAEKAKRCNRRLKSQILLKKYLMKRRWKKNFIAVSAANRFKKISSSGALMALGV
Chain of Serine/threonine-protein kinase MRCK gamma (Homo sapiens) (Q6DT37 whole entry): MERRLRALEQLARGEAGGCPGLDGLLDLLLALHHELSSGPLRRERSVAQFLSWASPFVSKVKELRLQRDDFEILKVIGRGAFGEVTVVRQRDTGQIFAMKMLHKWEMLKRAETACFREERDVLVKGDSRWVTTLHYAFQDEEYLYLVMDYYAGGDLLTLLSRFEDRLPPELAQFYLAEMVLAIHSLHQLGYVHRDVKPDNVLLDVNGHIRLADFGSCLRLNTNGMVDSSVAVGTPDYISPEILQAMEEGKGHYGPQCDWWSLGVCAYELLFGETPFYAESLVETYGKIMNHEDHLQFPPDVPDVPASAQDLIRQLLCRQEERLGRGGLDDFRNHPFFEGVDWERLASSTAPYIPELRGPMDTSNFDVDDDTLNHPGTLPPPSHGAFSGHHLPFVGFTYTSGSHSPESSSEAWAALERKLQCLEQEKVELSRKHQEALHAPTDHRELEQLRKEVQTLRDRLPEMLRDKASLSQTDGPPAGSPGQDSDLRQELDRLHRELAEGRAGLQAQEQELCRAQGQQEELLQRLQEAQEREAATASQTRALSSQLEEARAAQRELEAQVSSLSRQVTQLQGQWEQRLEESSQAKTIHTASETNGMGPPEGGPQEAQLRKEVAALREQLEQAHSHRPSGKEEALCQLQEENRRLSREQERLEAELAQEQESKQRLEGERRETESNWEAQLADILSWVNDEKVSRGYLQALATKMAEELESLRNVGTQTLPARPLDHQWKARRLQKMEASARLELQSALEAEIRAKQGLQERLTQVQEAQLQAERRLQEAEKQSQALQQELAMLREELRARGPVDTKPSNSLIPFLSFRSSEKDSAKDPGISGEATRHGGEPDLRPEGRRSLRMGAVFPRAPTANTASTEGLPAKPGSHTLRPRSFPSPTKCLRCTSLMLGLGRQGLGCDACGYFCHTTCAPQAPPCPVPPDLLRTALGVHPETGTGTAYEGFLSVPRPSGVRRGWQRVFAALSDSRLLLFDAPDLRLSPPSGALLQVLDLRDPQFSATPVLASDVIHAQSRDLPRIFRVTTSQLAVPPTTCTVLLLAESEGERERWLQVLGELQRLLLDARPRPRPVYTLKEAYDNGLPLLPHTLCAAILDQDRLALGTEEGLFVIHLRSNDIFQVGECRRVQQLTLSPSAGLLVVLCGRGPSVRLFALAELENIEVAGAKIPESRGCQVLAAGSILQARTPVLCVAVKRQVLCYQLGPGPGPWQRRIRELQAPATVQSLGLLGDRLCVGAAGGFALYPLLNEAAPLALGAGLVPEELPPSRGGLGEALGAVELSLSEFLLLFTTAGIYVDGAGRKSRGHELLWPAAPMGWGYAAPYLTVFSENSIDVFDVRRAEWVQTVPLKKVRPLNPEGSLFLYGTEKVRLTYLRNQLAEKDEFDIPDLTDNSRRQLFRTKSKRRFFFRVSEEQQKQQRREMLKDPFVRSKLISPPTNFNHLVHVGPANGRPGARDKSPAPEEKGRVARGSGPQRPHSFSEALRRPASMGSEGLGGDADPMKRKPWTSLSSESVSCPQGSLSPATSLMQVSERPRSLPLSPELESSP
Chain of Cyclin-dependent kinase 4 (Homo sapiens) (P11802 whole entry): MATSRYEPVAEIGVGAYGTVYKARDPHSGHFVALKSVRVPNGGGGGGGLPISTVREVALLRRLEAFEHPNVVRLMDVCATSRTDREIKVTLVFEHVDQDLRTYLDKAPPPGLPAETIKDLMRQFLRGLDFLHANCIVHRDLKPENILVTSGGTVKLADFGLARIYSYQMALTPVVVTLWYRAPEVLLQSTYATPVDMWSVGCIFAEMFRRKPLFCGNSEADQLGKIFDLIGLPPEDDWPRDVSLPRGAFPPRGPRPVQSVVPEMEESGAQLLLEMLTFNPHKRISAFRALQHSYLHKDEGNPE

Cc1c(NC(=O)c2cc(C(N)=O)nc3cc(F)ccc23)c(C(F)(F)F)nn1Cc1ccc(C#N)cc1 [BAY-876]
inactive: residual activity [1] 74% | residual activity [2] 100% | residual activity [3] 77% | residual activity [4] 88% | residual activity [5] 86% | residual activity [6] 81% | residual activity [7] 99% | residual activity [8] 91% | residual activity [9] 67% | residual activity [10] 96% | residual activity [11] 100% | residual activity [12] 75% | residual activity [13] 100% | residual activity [14] 99% | residual activity [15] 100% | residual activity [16] 95% | residual activity [17] 93% | residual activity [18] 95% | residual activity [19] 100% | residual activity [20] 75% | residual activity [21] 85% | residual activity [22] 90% | residual activity [23] 83% | residual activity [24] 90% | residual activity [25] 100% | residual activity [26] 89% | residual activity [27] 95% | residual activity [28] 90% | residual activity [29] 73% | residual activity [30] 100% | residual activity [31] 81% | residual activity [32] 86% | residual activity [33] 77% | residual activity [34] 88% | residual activity [35] 100% | residual activity [36] 82% | residual activity [37] 66% | residual activity [38] 80% | residual activity [39] 100% | residual activity [40] 93% | residual activity [41] 79% | inhibition (Histamine H2 receptor) 30.4% | inhibition [42] 5.66%

Cc1c(NC(=O)c2cc(C(N)=O)nc3cc(F)ccc23)c(C(F)(F)F)nn1Cc1ccc(C(C)(C)C)cc1 [BAY-588]
inactive: residual activity [1] 87% | residual activity [2] 94% | residual activity [3] 82% | residual activity [4] 100% | residual activity [5] 82% | residual activity [6] 100% | residual activity [7] 76% | residual activity [8] 91% | residual activity [9] 65% | residual activity [10] 100% | residual activity [11] 100% | residual activity [12] 100% | residual activity [13] 56% | residual activity [14] 92% | residual activity [15] 100% | residual activity [16] 100% | residual activity [17] 100% | residual activity [18] 98% | residual activity [19] 100% | residual activity [20] 100% | residual activity [21] 100% | residual activity [22] 100% | residual activity [23] 100% | residual activity [24] 91% | residual activity [25] 100% | residual activity [26] 90% | residual activity [27] 97% | residual activity [28] 87% | residual activity [29] 94% | residual activity [30] 100% | residual activity [31] 100% | residual activity [32] 89% | residual activity [33] 72% | residual activity [34] 99% | residual activity [35] 92% | residual activity [36] 100% | residual activity [37] 100% | residual activity [38] 100% | residual activity [39] 97% | residual activity [40] 100% | residual activity [41] 100% | inhibition (Histamine H2 receptor) 32.4% | inhibition [42] 7.34%
